Data as given in PubChem BioAssay (NCI).
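A five-concentration, 48-hour dose response in 96-well plates underlies each endpoint, interpolated linearly between surrounding concentrations. At the TGI there is no net growth.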

Legend:
Assay in all cases: growth of human tumour cells (NCI), 48 h
[1] = system: COLO 205 colon
[2] = system: SNB-75 CNS
[3] = system: LOX IMVI melanoma
[4] = system: OVCAR-5 ovarian
[5] = system: SF-268 CNS
[6] = system: UACC-257 melanoma
[7] = system: OVCAR-4 ovarian
[8] = system: U251 CNS
[9] = system: UACC-62 melanoma
[10] = system: BT-549 breast

`Cc1ccc(C)n1-n1c(Cc2ccccc2)n[nH]c1=O` was tested, and the TGI [1] was > 100 µM, the TGI [2] was > 100 µM and the TGI [3] was > 100 µM. For the same compound, the TGI [4] was > 100 µM, the TGI [5] was > 100 µM and the TGI [6] was > 100 µM. For the same compound, the TGI [7] was > 100 µM, the TGI [8] was > 100 µM and the TGI [9] was > 100 µM. The TGI [10] was > 100 µM.
With `CC(C)(C)c1cc(-c2cc(C(C)(C)C)n(-c3ccccc3)n2)nn1-c1ccccc1` the TGI [1] was > 100 µM, the TGI [2] was > 100 µM and the TGI [3] was > 100 µM. The TGI [4] was > 100 µM, the TGI [5] was > 100 µM and the TGI [6] was > 100 µM. For the same compound, the TGI [7] was > 100 µM, the TGI [8] was > 100 µM and the TGI [9] was > 100 µM. The TGI [10] was > 100 µM.
`C=CC(c1ccccc1)[C@@]1(OC(C)=O)C(=O)C(=O)OC1C1COC(C)(C)O1` (stereo not given in full) showed a TGI [1] of 26.5 µM, a TGI [2] of 36.6 µM and a TGI [3] of 16.2 µM. For the same compound, the TGI [4] was 33.2 µM, the TGI [5] was 71.4 µM and the TGI [6] was 23.9 µM. It also gave a TGI [7] of 30.5 µM, a TGI [8] of 28.7 µM and a TGI [9] of 29 µM. For the same compound, the TGI [10] was 30.1 µM.
Compound `Nc1nc(N)c2c(n1)NC(=O)c1c(c3ccccc3n1Cc1ccc(Cl)cc1)C2` has a TGI [1] of 30.5 µM, a TGI [2] of 69.2 µM and a TGI [3] of 56.4 µM. For the same compound, the TGI [4] was > 100 µM, the TGI [5] was > 100 µM and the TGI [6] was > 100 µM. For the same compound, the TGI [7] was 49.9 µM, the TGI [8] was > 100 µM and the TGI [9] was > 100 µM. The TGI [10] was 49.2 µM.
In the case of `Cc1nc2ccc(S(=O)(=O)Nc3ccccc3)cc2c(=O)n1NC(=O)CNc1ccccc1`, the TGI [1] is reported as > 100 µM, the TGI [2] is reported as > 100 µM and the TGI [3] is reported as > 100 µM. The TGI [4] was > 100 µM, the TGI [5] was > 100 µM and the TGI [6] was > 100 µM. The TGI [7] was > 100 µM, the TGI [8] was > 100 µM and the TGI [9] was > 100 µM. The TGI [10] was > 100 µM.
For `COc1ccc(C(=O)Cn2c(C(=O)/C=C/c3ccco3)nc3ccccc32)cc1`, the TGI [1] was 71.8 µM, the TGI [2] was > 100 µM and the TGI [3] was > 100 µM. The TGI [4] was > 100 µM, the TGI [5] was 91.4 µM and the TGI [6] was > 100 µM. For the same compound, the TGI [7] was > 100 µM, the TGI [8] was > 100 µM and the TGI [9] was > 100 µM. For the same compound, the TGI [10] was > 100 µM.
In the case of `COc1cc(CNc2ccc3nc4n(c(=O)c3c2)CCCCC4)cc(OC)c1OC`, the TGI [1] is reported as > 100 µM, the TGI [2] is reported as > 100 µM and the TGI [3] is reported as > 100 µM. The TGI [4] was > 100 µM, the TGI [5] was > 100 µM and the TGI [6] was 75.8 µM. For the same compound, the TGI [7] was > 100 µM, the TGI [8] was > 100 µM and the TGI [9] was > 100 µM. For the same compound, the TGI [10] was 71.6 µM.
`CC(=O)OC(C)C1C2=C(C(=O)CC1(C)O)C(=O)c1c(ccc(-c3ccc4c(c3O)C(=O)C3=C(C4=O)C(C(C)OC(C)=O)C(C)(O)CC3=O)c1O)C2=O` (stereo not given) gave a TGI [1] of 1.92 µM, a TGI [2] of 5.92 µM and a TGI [3] of 3.07 µM. It also gave a TGI [4] of 11.3 µM, a TGI [5] of 19.4 µM and a TGI [6] of 3.48 µM. It also gave a TGI [7] of 5.26 µM, a TGI [8] of 12.9 µM and a TGI [9] of 3.1 µM. The TGI [10] was 2.83 µM.
With `c1ccc(Cc2nc(Cc3n[nH]c(Cc4ccccc4)n3)n[nH]2)cc1` the TGI [1] was > 100 µM, the TGI [2] was > 100 µM and the TGI [3] was > 100 µM. The TGI [4] was > 100 µM, the TGI [5] was > 100 µM and the TGI [6] was > 100 µM. The TGI [7] was > 100 µM, the TGI [8] was > 100 µM and the TGI [9] was > 100 µM. The TGI [10] was > 100 µM.
`O/C(=C\c1nc2ccccc2nc1/C=C(\O)c1ccc(Cl)cc1)c1ccccc1` was tested, and the TGI [1] was > 100 µM, the TGI [2] was 72.8 µM and the TGI [3] was > 100 µM. The TGI [4] was > 100 µM, the TGI [5] was > 100 µM and the TGI [6] was > 100 µM. The TGI [7] was > 100 µM, the TGI [8] was > 100 µM and the TGI [9] was > 100 µM. For the same compound, the TGI [10] was > 100 µM.
`Cc1nc2sc3ccccc3n2c(=O)c1N=Nc1ccc(Br)cc1` was tested, and the TGI [1] was > 100 µM, the TGI [2] was > 100 µM and the TGI [3] was > 100 µM. For the same compound, the TGI [4] was > 100 µM, the TGI [5] was > 100 µM and the TGI [6] was > 100 µM. For the same compound, the TGI [7] was > 100 µM, the TGI [8] was > 100 µM and the TGI [9] was > 100 µM. The TGI [10] was > 100 µM.
With `COc1cc(OC)c2c(=O)cc(-c3ccccc3F)[nH]c2c1` the TGI [1] was > 100 µM, the TGI [2] was > 100 µM and the TGI [3] was > 100 µM. The TGI [4] was > 100 µM, the TGI [5] was > 100 µM and the TGI [6] was > 100 µM. For the same compound, the TGI [7] was 53.3 µM, the TGI [8] was > 100 µM and the TGI [9] was > 100 µM. For the same compound, the TGI [10] was > 100 µM.
With `NNC(=O)c1ccccc1NC(=O)/C(=C/c1ccccc1O)NC(=O)c1ccccc1` the TGI [1] was > 100 µM, the TGI [2] was 25.9 µM and the TGI [3] was > 100 µM. The TGI [4] was > 100 µM, the TGI [5] was 28.1 µM and the TGI [6] was > 100 µM. The TGI [7] was > 100 µM, the TGI [8] was > 100 µM and the TGI [9] was > 100 µM. For the same compound, the TGI [10] was > 100 µM.
With `O=C(CCc1ccccc1)ON1C(=S)NC(c2ccccc2)(c2ccccc2)C1=S` the TGI [1] was > 100 µM, the TGI [2] was > 100 µM and the TGI [3] was 52.8 µM. The TGI [4] was > 100 µM, the TGI [5] was > 100 µM and the TGI [6] was > 100 µM. For the same compound, the TGI [7] was > 100 µM, the TGI [8] was > 100 µM and the TGI [9] was > 100 µM. For the same compound, the TGI [10] was > 100 µM.
For `Cc1ccc(N=Nc2ccc(O)c(CN(C)C)c2)cc1C`, the TGI [1] was 25.6 µM, the TGI [2] was > 100 µM and the TGI [3] was 76.2 µM. For the same compound, the TGI [4] was > 100 µM, the TGI [5] was > 100 µM and the TGI [6] was 58.9 µM. The TGI [7] was > 100 µM, the TGI [8] was > 100 µM and the TGI [9] was 34.6 µM. For the same compound, the TGI [10] was > 100 µM.
`O=C1c2ccccc2C(=O)[C@@]23O[C@@]12C1(Oc2cccc4cccc(c24)O1)[C@@H]1O[C@@H]1[C@@H]3O` showed a TGI [1] of 27 µM, a TGI [2] of 24 µM and a TGI [3] of 16.5 µM. It also gave a TGI [4] of 39.3 µM, a TGI [5] of 25.4 µM and a TGI [6] of 40.1 µM. For the same compound, the TGI [7] was 17.4 µM, the TGI [8] was > 47.6 µM and the TGI [9] was 27.2 µM. The TGI [10] was 11.1 µM.
In the case of `Oc1cc(-c2ccccc2)cn2c1nc1ccccc12`, the TGI [1] is reported as > 100 µM, the TGI [2] is reported as > 100 µM and the TGI [3] is reported as > 100 µM. For the same compound, the TGI [4] was > 100 µM, the TGI [5] was > 100 µM and the TGI [6] was > 100 µM. For the same compound, the TGI [7] was > 100 µM, the TGI [8] was > 100 µM and the TGI [9] was 19.5 µM. The TGI [10] was > 100 µM.
